One assay concerns Plasmodium falciparum. The assay is described as follows: Antiplasmodial activity against chloroquine-sensitive Plasmodium falciparum 3D7. The assay is classed as functional, organism-based.
In the next assay the test system is Leishmania major. The assay is described as follows: Antileishmanial activity against Leishmania major promastigotes after 20 hrs. The assay is classed as functional, organism-based.
Assay [1] in a line: Inhibition of phytohemagglutininin A-induced proliferation in human lymphocytes assessed as radiolabeled thymidine uptake. The following applies: Lymphocyte. The assay is classed as cell-based.

Structures are written as SMILES. ≈ marks a conversion by molar mass, not a printed value.

This passage reports IC50 results from ChEMBL document CHEMBL1155594, “Absolute configuration and antiprotozoal activity of minquartynoic acid” (J Nat Prod, 2000).

In general, IC50 refers to the midpoint of a concentration-inhibition curve.

As for `C[C@H](O)C#CC#CC#CC#CCCCCCCCC(=O)O` [MINQUARTYNOIC ACID], the IC50 is 3 µg/mL (≈ 10.6 µM) in the assay with Plasmodium falciparum, 1.4 µg/mL (≈ 4.92 µM) in the assay on Leishmania major and 5.3 µg/mL (≈ 18.6 µM) in assay [1].
